US20250250559A1, “METHOD TO ANALYZE AND OPTIMIZE GENE EDITING MODULES AND DELIVERY APPROACHES” (Hoffmann-La Roche Inc., priority 2016, published 2025)
Where “and” joins values, the source holds several entries; their conditions need not be identical. Identical values can stand only once.

Tests used:
Assay type in all cases: cell-based, human
[1] = tested on: DPH2 gene; assay: DT resistant colony count after DPH2 gene editing; conditions: DPH2 assay (integr. vs. k.o.)
Procedure: (§1) MCF7 cells (Brooks, et al. 1973) were originally obtained from ATCC (subsequently propagated in an in-house cell bank) and maintained in RPMI […] medium supplemented with 10% FCS, 2 mM L-Glutamine and penicillin/streptomycin at 37° C. and 85% humidity. For transfection of plasmids harboring gene-editing modules, 3,000,000 cells were seeded in a 10 cm diameter culture dish and cultivated at 37° C. and humidified 5% CO2. 24 h after seeding, cells were transfected with 20 μg total DNA using JetPEI (Polyplus) according to the manufacturer's protocol but with an N/P ratio of 6:1. Transfection efficiency was determined after 24 h by flow cytometry (FACS Calibur, BD biosciences) of cells that were transfected with a modified eGFP expression plasmid (Zhang, et al. 1996).
(§2) Plasmids encoding CRISPR/Cas9 gene-editing entities (i.e. knock-out and integration systems) against Dph1 (gRNA target sequence: […] (SEQ ID NO: 01) derived from RefSeq: NM_001383) and Dph2 (gRNA target sequence: […] (SEQ ID NO: 02) derived from RefSeq: NM_001039589, NM_001384), and scrambled control (gRNA sequence: […] (SEQ ID NO: 03)) were obtained from OriGene. This system comprises one plasmid expressing a ˜100 nt gRNA under control of a U6 promoter as well as Cas9 nuclease under control of a CMV promoter and a Donor plasmid with a promoter-less GFP/PM expression cassette flanked by homologous arms to the target gene (Dph1 or Dph2). Additional Dph1 gRNA sequence variants of different sizes (OriGene) […]
(§3) MCF7 cells which have all chromosomal copies of DPH1 or DPH2 inactivated are resistant to diphtheria toxin (Stahl, et al. 2015). Thus, occurrence and frequency of toxin resistant cells/colonies upon CRISPR/Cas inflicted gene inactivation provides a measure for efficiency of inactivation of all gene copies. Therefore, MCF/cells were transfected as described in Example 1 with (i) a GFP expression plasmid as transfection control, (ii) the CRISPR/Cas9 Dph1 or Dph2 knock-out/integration system and (iii) knock-out/integration entities containing a scrambled gRNA to determine Cas9 independent integration frequencies. After determination of transfection efficiency, cells were seeded in 6-well plates. For quantification of homozygous knock-out events by DT 20000 cells were seeded and for quantification of integration events by PM or both events 40000 cells were seeded. RPMI medium was exchanged by RPMI medium containing DT or PM or both toxins 3 days after cell seeding. Exchange of medium was repeated every 2-3 days until all dead cells were removed from the plates and actively growing colonies could be detected via microscopic inspection. Thereafter (between day 12 and day 14 after start of toxin exposure), cells were washed 3 times with PBS and subsequently stained with ice cold methylene blue (0.2% in 50% EtOH). Methylene blue solution was subsequently removed and the plates were carefully washed under running water. Finally, cell colonies were counted under the microscope with a 5 mm grid foil.

[2] = tested on: DPH1 gene; assay: PM resistant colony count after DPH1 gene editing (PAC cassette integration); conditions: for # of PM resistant colonies (40,000 seeded cells): MCF7, individual samples A-D; for # of PM resistant colonies (mean of the samples) / # of PM resistant colonies: TF eff. = 38%; for # of PM resistant colonies: DPH1 assay (integr. vs. k.o.), individual samples
[3] = tested on: DPH2 gene; assay: PM resistant colony count after DPH2 gene editing; conditions: DPH2 assay (integr. vs. k.o.); for # of PM resistant colonies (40,000 seeded cells): MCF7, individual samples A-D
Procedure: as §1, §2, §3
CRISPR/Cas module for targeted integration contains a puromycin (PM) resistance gene expression cassette without promoter to avoid transient expression. Thus, detection of integration of recombinant sequences into the genome was detected by determining sensitivity of cells towards PM. A concentration of […] PM (which quantitatively eliminates wildtype MCF7 cells) was applied to select MCF7 cells with stably integrated expression cassettes. PM-resistant colonies selected with the same procedure as described above for the DT selection and visualized and quantified (between 12 and 14 days after start of selection) in the same manner as described above for toxin resistant colonies. Number of PM resistant colonies obtained with non-target guide sequences (scrambled gRNA, FIG. 1) reflect the nonspecific integration background. […]

[4] = tested on: DPH1 gene; assay: DT + PM double resistant colony count after DPH1 gene editing (integration with inactivation)
Procedure: MCF7 cells (Brooks, et al. 1973) were originally obtained from ATCC (subsequently propagated in an in-house cell bank) and maintained in RPMI 1641 medium supplemented with 10% FCS, 2 mM L-Glutamine and penicillin/streptomycin at 37° C. and 85% humidity. For transfection of plasmids harboring gene-editing modules, 3,000,000 cells were seeded in a 10 cm diameter culture dish and cultivated at 37° C. and humidified 5% CO2. 24 h after seeding, cells were transfected with 20 μg total DNA using JetPEI (Polyplus) according to the manufacturer's protocol but with an N/P ratio of 6:1. Transfection efficiency was determined after 24 h by flow cytometry (FACS Calibur, BD biosciences) of cells that were transfected with a modified eGFP expression plasmid (Zhang, et al. 1996).
CRISPR/Cas module for targeted integration contains a puromycin (PM) resistance gene expression cassette without promoter to avoid transient expression. Thus, detection of integration of recombinant sequences into the genome was detected by determining sensitivity of cells towards PM. A concentration of 500 ng/μL PM (which quantitatively eliminates wildtype MCF7 cells) was applied to select MCF7 cells with stably integrated expression cassettes. PM-resistant colonies selected with the same procedure as described above for the DT selection and visualized and quantified (between 12 and 14 days after start of selection) in the same manner as described above for toxin resistant colonies. Number of PM resistant colonies obtained with non-target guide sequences (scrambled gRNA, FIG. 1) reflect the nonspecific integration background. Increase in colonies (above nonspecific background) obtained with target-gene gRNAs which are PM-resistant but toxin sensitive reflect integration into just one target allele, leaving the other dph1 or dph2 allele unaffected. PM resistant colonies that are also DT resistant have the expression cassette integrated into at least target allele and the other allele either inactivated or inactivated accompanied by yet another integration event.

[5] = DPH1 (gRNA length), TF eff. = 31%
[6] = DPH1 assay (integr. vs. (integr. + k.o.)), TF eff. = 67*%
[7] = DPH1 assay editing entities, MCF-7, individual replicates, TF eff. = 33%

20 mer SpCas9 scRNA: Scrambled control gRNA GCACTACCAGAGCTAACTCA (SEQ ID NO: 03) with SpCas9 and donor plasmid [reference compound]
# of DT resistant colonies (40,000 seeded cells) (unheaded second sub-column: mean) ([1]; MCF7): 0
# of DT resistant colonies (40,000 seeded cells) ([1]; MCF7, individual samples A-D): 0
# of PM resistant colonies (40,000 seeded cells) ([2]; DPH1 (gRNA length), TF eff. = 31%, listed as 20 mer scRNA): 7 and 6 and 9 and 10
# of PM resistant colonies (40,000 seeded cells) (unheaded second sub-column: mean) [2, 5]: 8
# of PM resistant colonies (40,000 seeded cells) ([2]; DPH1 assay (integr. vs. (integr. + k.o.)), TF eff. = 67*%, listed as 20 mer scRNA): 10 (2×) and 9 and 16
# of PM resistant colonies (40,000 seeded cells) ([2]; DPH1 assay (integr. vs. (integr. + k.o.)), TF eff. = 67*%, listed as SCRNA): 16
# of PM resistant colonies (40,000 seeded cells) ([2]; DPH1 assay (integr. vs. (integr. + k.o.)), TF eff. = 67*%, listed as scRNA): 10 (2×) and 9
# of PM resistant colonies (40,000 seeded cells) (unheaded second sub-column: mean) [2, 6]: 11
# of PM resistant colonies (mean of the samples) ([2]; DPH1 assay (integr. vs. k.o.), 10,000 seeded cells): 3
# of PM resistant colonies (mean of the samples) ([2]; DPH1 assay (integr. vs. k.o.), 20,000 seeded cells): 9
# of PM resistant colonies (mean of the samples) ([2]; DPH1 assay (integr. vs. k.o.), 40,000 seeded cells): 12
# of PM resistant colonies ([2]; MCF7, 10,000 seeded cells): 3 (2×) and 2 and 4
# of PM resistant colonies ([2]; MCF7, 10,000 seeded cells, listed as CRISPR Cas9 SCRNA): 3 (2×) and 2 and 4
# of PM resistant colonies ([2]; MCF7, 20,000 seeded cells): 11 and 7 and 10 and 9
# of PM resistant colonies ([2]; MCF7, 20,000 seeded cells, listed as CRISPR Cas9 SCRNA): 11 and 10 and 9
# of PM resistant colonies ([2]; MCF7, 20,000 seeded cells, listed as CRISPR Cas9 scRNA): 7
# of PM resistant colonies ([2]; MCF7, 40,000 seeded cells): 17 and 13 and 9 and 10
# of PM resistant colonies ([2]; MCF7, 40,000 seeded cells, listed as CRISPR Cas9 SCRNA): 17 and 9 and 10
# of PM resistant colonies ([2]; MCF7, 40,000 seeded cells, listed as CRISPR Cas9 scRNA): 13
# of PM resistant colonies (80,000 seeded cells) [2, 7]: 4 and 3 and 5
fold less PMr colonies than with DPH1-specific gRNA ([2]; otherwise identical conditions): 2 fold
# of PM resistant colonies (40,000 seeded cells) (unheaded second sub-column: mean) ([3]; MCF7): 0.5
# of PM resistant colonies (40,000 seeded cells) [3]: 2 and 0 (3×)
# of PM resistant colonies (40,000 seeded cells) ([3]; listed as 20 mer scRNA): 2 and 0 (3×)
# of DT + PM resistant colonies (40,000 seeded cells) ([4]; DPH1 (gRNA length), MCF7, individual samples A-D, TF eff. = 31%): 0
# of DT + PM resistant colonies (40,000 seeded cells) (unheaded second sub-column: mean) [4, 5]: 0
# of PM + DT resistant colonies (40,000 seeded cells) ([4]; DPH1 assay (integr. vs. (integr. + k.o.)), MCF7, individual samples A-D, TF eff. = 67*%): 0
# of PM + DT resistant colonies (40,000 seeded cells) (unheaded second sub-column: mean) [4, 6]: 0
# of DT + PM resistant colonies (80,000 seeded cells) [4, 7]: 0
